Data as given in patent US20220154404A1, “Active Materials, Surfaces, Surface Treatments And Methods For Packaging Materials, Boxes, And Containers Using Photosensitizers For Pathogen Reduction” (Mi2 Holdings LLC, priority 2020, published 2022).
Where two headings read alike, the source gives them in different places.

Columns and labels:
[1] = Absorption characteristics of photosensitizers with peak absorptions in visible light (Lambda Max, Epsilon); type: physicochemical; conditions: determined in water
From the text: Examples of photosensitizers having peak absorptions in visible light and their absorption characteristics is: […]

[2] = cited from earlier work; for Epsilon: ideal solvent
[3] = ideal solvent; cited from earlier work
[4] = cited from earlier work

Compound	Epsilon ([1]; first or only peak)	Epsilon ([1]; second peak (after the slash))	Lambda Max ([2]; first or only peak)	Lambda Max ([2]; second peak (after the slash))	Singlet Oxygen QY [3]	Epsilon ([2]; first or only peak)	Epsilon ([2]; second peak (after the slash))	water solubility [4]
C=Cc1c(C)c2cc3nc(c(CC(=O)O)c4[nH]c(cc5nc(cc1[nH]2)C(C)=C5CC)c(C)c4C(=O)O)[C@@H](CCC(=O)O)[C@@H]3C [Chlorin e6, chlorin e6]	150,000	30,000	400	650	0.65			
O=C([O-])c1ccccc1-c1c2cc(Br)c(=O)c(Br)c-2oc2c(Br)c([O-])c(Br)cc12.[Na+].[Na+] [Eosin Y]			525			112,000		
O.O=C([O-])c1ccccc1-c1c2cc(I)c(=O)c(I)c-2oc2c(I)c([O-])c(I)cc12.[Na+].[Na+] [Erythrosin B]			530		0.63	82,000		
CN(C)c1ccc2nc3ccc(=[N+](C)C)cc-3sc2c1 [Methylene Blue, methylene blue (CAS #61-73-4)]	48,000		665		0.52			
CCNc1cc2[s+]c3cc(NCC)c(C)cc3nc2cc1C.[Cl-] [New MB]	64,000		630					
O=C([O-])c1c(Cl)c(Cl)c(Cl)c(Cl)c1-c1c2cc(I)c(=O)c(I)c-2oc2c(I)c([O-])c(I)cc12.[Na+].[Na+] [Rose Bengal, Rose Bengal (CAS #632-69-9)]			562		0.76	90,000		
C=Cc1c(C)c2cc3nc(c(CC(=O)N[C@@H](CC(=O)O)C(=O)O)c4[nH]c(cc5nc(cc1[nH]2)C(C)=C5CC)c(C)c4C(=O)O)[C@@H](CCC(=O)O)[C@@H]3C [Talaporfin (LS11, MACE, NPs6), Talaporfin]			400	654	0.77	180,000	40,000	
IRDye 700DX HHS Ester [IR700]								good solubility
Verteporfin			435			~70,000		
